Data on three compounds can be found in patent publication US4868195A, “Novel enolamides, pharmaceutical compositions and methods of use thereof for activity as modulators of the arachidonic acid cascade” (Warner-Lambert Company, priority 1988, dated 1989).

Assay [1] has as its target Human Leukocyte Lipoxygenase. As to the kind of experiment: Human Leukocyte Lipoxygenase Assay (LDA-H). The format is biochemical. As to conditions: acetone-pentane powder enzyme, 234 nm, 24° C., 5 min preincubation; read-out: Concentration (M) for 50.0 % Inhibition, IC (LDAH). The method, boiled down:
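Enzyme from acetone-pentane powder of human buffy-coat leukocytes, extracted in 0.1M Tris pH 7.4. Compound preincubated 5 min with enzyme, then reaction started with arachidonic or linoleic acid (100 μM or 1.0 μM) and followed at 234 nm (conjugated diene) at 24° C. IC50 is molar concentration halving control rate.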

The target in assay [2] is T1, human leukocyte 5-lipoxygenase (Homo sapiens, UniProt P09917).
T1 construct: endogenous in cells; host or cells: intact leukocytes isolated from human blood
T1 sequence (P09917 1-674): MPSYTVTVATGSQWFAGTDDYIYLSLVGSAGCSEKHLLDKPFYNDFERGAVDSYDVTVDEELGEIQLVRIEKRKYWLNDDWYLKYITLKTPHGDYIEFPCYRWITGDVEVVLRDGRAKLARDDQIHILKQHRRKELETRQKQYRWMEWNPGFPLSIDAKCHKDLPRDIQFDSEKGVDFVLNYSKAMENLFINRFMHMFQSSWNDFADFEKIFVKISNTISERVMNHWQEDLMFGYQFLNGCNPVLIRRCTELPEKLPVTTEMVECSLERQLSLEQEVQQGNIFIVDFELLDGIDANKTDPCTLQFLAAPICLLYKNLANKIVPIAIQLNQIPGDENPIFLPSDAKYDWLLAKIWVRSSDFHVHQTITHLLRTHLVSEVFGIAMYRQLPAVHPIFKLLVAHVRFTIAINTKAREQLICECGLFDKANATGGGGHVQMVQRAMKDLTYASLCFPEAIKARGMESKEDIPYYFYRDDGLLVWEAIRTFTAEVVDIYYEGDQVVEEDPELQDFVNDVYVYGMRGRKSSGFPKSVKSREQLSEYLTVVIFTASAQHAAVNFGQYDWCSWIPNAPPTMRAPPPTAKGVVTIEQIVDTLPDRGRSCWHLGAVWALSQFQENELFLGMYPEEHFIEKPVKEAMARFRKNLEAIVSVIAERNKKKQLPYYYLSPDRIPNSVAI
Kind of assay: 5-lipoxygenase inhibition in human leukocytes, 5-HETE formation (5LOA; methods 5LOA1 and 5LOA2). The format is cell-based. Conditions: 5-HETE formation, human leukocytes; read-out: Concentration (M) for 50.0 % Inhibition, IC (5LOA). The source says:
To Evaluate the Effect of Each Compounds as a 5-Lipoxygenase Inhibitor in Comparison to Standard Reference Agents in Human Leukocytes (5LOA1)
The purpose of this assay is to evaluate the activity of each compound as an inhibitor of human leukocyte 5-lipoxygenase.
Arachidonic acid and calcium ionophore A23187 are obtained from Sigma (St. Louis, MO). Silica gel plates, GF are obtained from Analtech (Newark, DE). Arachidonic acid, (1-^14 C) and 5-HETE (^3 H), 5 (S)-hydroxy-6-trans,8,11,14-cis eicosatetraenoic acid, are obtained from New England Nuclear (Boston, MA). Six percent Dextran-70 in 0.9% NaCl is obtained from Cutter Labs (Berkeley, CA).
Preparation of Leukocytes
Fresh blood from normal adult men who had not received any drugs for at least the previous five days is obtained by the Community Research Clinic (WL/PD) using venipuncture and collected into heparinized vacuotainer tubes. To every 100 ml of pooled blood is added 25 ml of dextran solution (6% dextran -70 in 0.9% sodium chloride containing 3% dextrose) and this is mixed gently in a plastic cylinder. The mixture is left to stand at room temperature for at least 90 minutes. The upper layer which is rich in leukocytes and platelets is then carefully decanted into 50 ml plastic tubes and centrifuged at about 100×g for eight minutes in an IEC centrifuge and rotor number 269 (about 600 rpm). The supernatant fluid is discarded and the pellet is resuspended in 10 ml of 0.87% ammonium chloride for exactly two minutes. This procedure is to lyse completely contaminating red blood cells. Leukocytes are then separated by centrifugation for ten minutes. The pellet is washed three times by suspension in 20 ml PBS (sodium chloride, 7.1 g; Na2 HPO4, 1.15 g; KH2 PO4, 0.2 g, and KCl, 0.2 g/L) and centrifuged as before. The final pellet is suspended in PBS containing 0.87 mM CaCl2. Viability of the cells is then checked using trypan blue exclusion method and is found to be over 90%.
5-Lipoxygenase Enzyme Assay
Leukocyte cells in suspension (0.98 ml) are incubated with or without test compounds for five minutes at 37° C. in a shaking water bath. At this time a 17 μl mixture is prepared per 1 ml of cell suspension: 100 mM arachidonic acid, 1 μl, 0.05 μCi ^14 C-arachidonic acid in 5 μl; 1 mM calcium ionophore A23187, 10 μl (1). This mixture is added and the incubation continued for five minutes. The reaction is stopped by adding four volumes of absolute ethanol and the mixture is kept in ice for 30 minutes. The floculated precipitate is separated by centrifugation at about 37,000×g for 20 minutes (Beckman Instruments rotor number 40). The alcohol extract is taken to dryness under a stream of nitrogen and the residue is dissolved in 100-200 μl absolute ethanol. At the time any turbidity is removed by centrifugation. An aliquot (25-50 μl) is applied onto 20×20 cm silica gel TLC plate and developed using the following solvent system: diethyl ether, petroleum ether (2040° C.), acetic acid (50:50:1 v/v). Zones of 1 cm apart are scraped from the TLC plate and transferred to mini-vials. Methanol (0.5 ml) is added to dissolve the radioactivity adsorbed to the silica gel and scintillation fluid (H. P., Beckman), 5 ml is then added and vials are counted in a liquid scintillation counter. A sample of ^3 H-5-HETE is applied and used for the identification of the formed 5-HETE.
Total radioactivity in the test as well as the control samples are normalized and the amount of 5-HETE present is calculated accordingly.
IC50 values are defined as the concentrations of test agents which caused a 50% inhibition of the formation of 5-HETE as compared to control and are determined by inspection of the concentration-response curves.
5-Lipoxygenase Assay Using Isolated Human Leukocytes (5LOA2)
The formation of 5-HETE in human leukocytes is considered a measure of 5-lipoxygenase activity. The protocol is described in the following. […]

As to `COc1ccc(CCc2ccc(NC(=O)C(=O)c3oc4ccccc4c3O)cc2)cc1OC` [Example 121, 2-Benzofuranacetamide, N-[4-[2-(3,4-dimethoxyphenyl)ethyl]phenyl]-3-hydroxy-α-oxo], the IC50 in assay [1] was 1.6e-06 M; in assay [2], 7.6e-06 M.

For `O=C(Nc1ccc(CCc2ccc(O)c(O)c2)cc1)c1oc2ccccc2c1O` [Example 124, 2-Benzofurancarboxamide, N-[4-[2-(3,4-dihydroxyphenyl)ethyl]phenyl]-3-hydroxy], the IC50 amounted to 6.5e-06 M in assay [1] and 4.2e-06 M in assay [2].

Consider `O=C(Nc1ccc(CCc2ccc(O)c(O)c2)cc1)C(=O)C1=C(O)c2ccccc2OC1` [Example 150], for which the IC50 in assay [1] is 4.7e-06 M; in assay [2], 1.8e-06 M.
